Patent publication US20240116951A1, “HETEROCYCLIC COMPOUNDS AND USES THEREOF” (Kumquat Biosciences Inc., priority 2022, published 2024)

Legend:
Assay type in all cases: binding
[1] = biological target: T1, KRAS G12D (Homo sapiens, UniProt P01116, G12D); assay: HTRF assay of K-Ras G12D interaction with SOS1 (PPI-HTRF); conditions: HTRF, 5 nM KRAS G12D; read-out: PPI-HTRF-5 nM KRAS G12D
T1 construct: made in house; host or cells: E. coli, e.g. BL21 (DE3)
In short: (§1)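 HTRF on GST-K-Ras/His-hSOS1 was measured after ≥10 min in pH 7.4 HEPES buffer. IC50 values were derived from the ratiometric emission signal.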

[2] = biological target: T2, KRAS G12S (Homo sapiens, UniProt P01116, G12S); assay: HTRF assay of K-Ras G12S interaction with SOS1 (PPI-HTRF); conditions: 5 nM KRAS G12S, read-out: PPI-HTRF-5 nM KRAS G12S
T2 construct: made in house; host or cells: E. coli, e.g. BL21 (DE3)
T2 sequence (P01116 1-188 isoform P01116-2 G12S): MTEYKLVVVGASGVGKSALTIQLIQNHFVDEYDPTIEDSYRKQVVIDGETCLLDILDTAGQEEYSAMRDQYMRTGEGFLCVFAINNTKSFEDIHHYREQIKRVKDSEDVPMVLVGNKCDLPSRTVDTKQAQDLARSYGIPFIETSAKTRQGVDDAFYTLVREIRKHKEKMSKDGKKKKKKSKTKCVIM
In short: as §1

[3] = biological target: T3, KRAS WT (Homo sapiens, UniProt P01116); assay: HTRF assay of wildtype K-Ras interaction with SOS1 (PPI-HTRF); conditions: HTRF, 5 nM KRAS WT; read-out: PPI-HTRF-5 nM KRAS WT
T3 construct: made in house; host or cells: E. coli, e.g. BL21 (DE3)
T3 sequence (P01116 1-188 isoform P01116-2): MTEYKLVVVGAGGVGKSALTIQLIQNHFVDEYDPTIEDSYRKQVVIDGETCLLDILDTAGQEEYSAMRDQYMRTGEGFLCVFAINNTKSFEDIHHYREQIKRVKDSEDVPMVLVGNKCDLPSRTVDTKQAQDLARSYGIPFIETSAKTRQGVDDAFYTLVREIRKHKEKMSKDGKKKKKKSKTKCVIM
In short: as §1

T1 sequence (P01116 1-188 isoform P01116-2 G12D): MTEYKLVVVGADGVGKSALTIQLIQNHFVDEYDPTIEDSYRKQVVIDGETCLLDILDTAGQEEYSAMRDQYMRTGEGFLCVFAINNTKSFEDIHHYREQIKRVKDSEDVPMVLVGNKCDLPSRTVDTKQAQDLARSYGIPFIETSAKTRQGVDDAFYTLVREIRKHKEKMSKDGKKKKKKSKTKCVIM

IC50 [1] [µM]	IC50 [2] [µM]	IC50 [3] [µM]	Structure (SMILES)
< 5	< 5	< 5	C[C@H](Oc1nc(N2CCC3(CCN3C(=O)[C@@H]3C[C@H]3F)C2)c2cc(Cl)c(-c3ccc(F)c4sc(N)c(C#N)c34)c(F)c2n1)[C@@H]1CCCN1C (stereo partly drawn) [Compound 271, 2-amino-4-(6-chloro-8-fluoro-4-(1-((1S,2R)-2-fluorocyclopropane-1-carbonyl)-1,6-diazaspiro[3.4]octan-6-yl)-2-((S)-1-((S)-1-methylpyrrolidin-2-yl)ethoxy)quinazolin-7-yl)-7-fluorobenzo[b]thiophene-3-carbonitrile]
< 5	< 5	< 5	CN(C)CC1(COc2nc(N3CCC4(CCN4C(=O)n4cncn4)C3)c3cc(Cl)c(-c4ccc(F)c5sc(N)c(C#N)c45)c(F)c3n2)CC1 (stereo not drawn) [Compound 315, 4-(4-(1-(1H-1,2,4-triazole-1-carbonyl)-1,6-diazaspiro[3.4]octan-6-yl)-6-chloro-2-((1-((dimethylamino)methyl)cyclopropyl)methoxy)-8-fluoroquinazolin-7-yl)-2-amino-7-fluorobenzo[b]thiophene-3-carbonitrile]
< 5	< 5	< 5	N#Cc1c(N)sc2c(F)ccc(-c3c(Cl)cc4c(N5CCC6(CCN6C(=O)n6nccc6C#N)C5)nc(OC[C@@]56CCCN5C[C@H](F)C6)nc4c3F)c12 (stereo partly drawn) [Compound 290, 1-(6-(7-(2-amino-3-cyano-7-fluorobenzo[b]thiophen-4-yl)-6-chloro-8-fluoro-2-(((2R,7aS)-2-fluorotetrahydro-1H-pyrrolizin-7a(5H)-yl)methoxy)quinazolin-4-yl)-1,6-diazaspiro[3.4]octane-1-carbonyl)-1H-pyrazole-5-carbonitrile]
< 5	< 5	< 5	N#Cc1c(N)sc2c(F)ccc(-c3c(Cl)cc4c(N5CCC6(CCN6C#N)C5)nc(OC[C@@]56CCCN5C[C@H](F)C6)nc4c3F)c12 (stereo partly drawn) [Compound 303, 6-(7-(2-amino-3-cyano-7-fluorobenzo[b]thiophen-4-yl)-6-chloro-8-fluoro-2-(((2R,7aS)-2-fluorotetrahydro-1H-pyrrolizin-7a(5H)-yl)methoxy)quinazolin-4-yl)-1,6-diazaspiro[3.4]octane-1-carbonitrile]
< 5	< 5	< 5	N#Cc1ncn(C(=O)N2CC[C@@]23CCN(c2nc(OC[C@@]45CCCN4C[C@H](F)C5)nc4c(F)c(-c5ccc(F)c6sc(N)c(C#N)c56)c(Cl)cc24)C3)n1 [Compound 321, 1-((4R)-6-(7-(2-amino-3-cyano-7-fluorobenzo[b]thiophen-4-yl)-6-chloro-8-fluoro-2-(((2R,7aS)-2-fluorotetrahydro-1H-pyrrolizin-7a(5H)-yl)methoxy)quinazolin-4-yl)-1,6-diazaspiro[3.4]octane-1-carbonyl)-1H-1,2,4-triazole-3-carbonitrile]
< 5	< 5	< 5	N#Cc1c(N)sc2c(F)ccc(-c3c(Cl)cc4c(N5CCCCC6(CCCN6C(=O)n6cncn6)C5)nc(OC[C@@]56CCCN5C[C@H](F)C6)nc4c3F)c12 (mixture of isomers) [Compound 349, 4-(4-(1-(1H-1,2,4-triazole-1-carbonyl)-1,7-diazaspiro[4.6]undecan-7-yl)-6-chloro-8-fluoro-2-(((2R,7aS)-2-fluorotetrahydro-1H-pyrrolizin-7a(5H)-yl)methoxy)quinazolin-7-yl)-2-amino-7-fluorobenzo[b]thiophene-3-carbonitrile]

More lines, now with the values behind:

Structure (SMILES)	IC50 [1] [µM]	IC50 [2] [µM]	IC50 [3] [µM]
COCC(=O)N1CCC12CCN(c1nc(O[C@@H](C)[C@@H]3CCCN3C)nc3c(F)c(-c4ccc(F)c5sc(N)c(C#N)c45)c(Cl)cc13)C2 (stereo partly drawn) [Compound 254, 2-amino-4-(6-chloro-8-fluoro-4-(1-(2-methoxyacetyl)-1,6-diazaspiro[3.4]octan-6-yl)-2-((S)-1-((S)-1-methylpyrrolidin-2-yl)ethoxy)quinazolin-7-yl)-7-fluorobenzo[b]thiophene-3-carbonitrile]	< 5	< 5	< 5
N#Cc1c(N)sc2c(F)ccc(-c3c(Cl)cc4c(N5CC[C@@]6(CCN6C(=O)n6cnc(Cl)n6)C5)nc(OC[C@@]56CCCN5C[C@H](F)C6)nc4c3F)c12 (atropisomer, axis not shown; (aS)) [Compound 225, 2-amino-4-((R)-6-chloro-4-((R)-1-(3-chloro-1H-1,2,4-triazole-1-carbonyl)-1,6-diazaspiro[3.4]octan-6-yl)-8-fluoro-2-(((2R,7aS)-2-fluorotetrahydro-1H-pyrrolizin-7a(5H)-yl)methoxy)quinazolin-7-yl)-7-fluorobenzo[b]thiophene-3-carbonitrile]	< 5	< 5	< 5
C[C@H](Oc1nc(N2CCC3(CCN3C(=O)[C@@H]3C[C@H]3C#N)C2)c2cc(Cl)c(-c3ccc(F)c4sc(N)c(C#N)c34)c(F)c2n1)[C@@H]1CCCN1C (stereo partly drawn) [Compound 206, 2-amino-4-(6-chloro-4-(1-((1R,2R)-2-cyanocyclopropane-1-carbonyl)-1,6-diazaspiro[3.4]octan-6-yl)-8-fluoro-2-((S)-1-((S)-1-methylpyrrolidin-2-yl)ethoxy)quinazolin-7-yl)-7-fluorobenzo[b]thiophene-3-carbonitrile]	< 5	< 5	< 5
Nc1nc2c(-c3c(Cl)cc4c(N5CCCC6(CCCN6)C5)nc(OC[C@@]56CCCN5C[C@H](F)C6)nc4c3F)ccc(F)c2s1 (stereo partly drawn) [Compound 219, 4-(6-chloro-8-fluoro-2-(((2R,7aS)-2-fluorotetrahydro-1H-pyrrolizin-7a(5H)-yl)methoxy)-4-(1,7-diazaspiro[4.5]decan-7-yl)quinazolin-7-yl)-7-fluorobenzo[d]thiazol-2-amine]	< 5	< 5	< 5
N#Cc1c(N)sc2c(F)ccc(-c3c(Cl)cc4c(N5CCC6(CCN6C(=O)C(F)Cl)C5)nc(OC[C@@]56CCCN5C[C@H](F)C6)nc4c3F)c12 (stereo partly drawn) [Compound 244, 2-amino-4-(6-chloro-4-(1-(2-chloro-2-fluoroacetyl)-1,6-diazaspiro[3.4]octan-6-yl)-8-fluoro-2-(((2R,7aS)-2-fluorotetrahydro-1H-pyrrolizin-7a(5H)-yl)methoxy)quinazolin-7-yl)-7-fluorobenzo[b]thiophene-3-carbonitrile]	< 5	< 5	< 5
Nc1nc2c(-c3c(Cl)cc4c(N5CCC6(CCN6)CC5)nc(OC[C@@]56CCCN5C[C@H](F)C6)nc4c3F)ccc(F)c2s1 [Compound 265, 4-(6-chloro-8-fluoro-2-(((2R,7aS)-2-fluorotetrahydro-1H-pyrrolizin-7a(5H)-yl)methoxy)-4-(1,7-diazaspiro[3.5]nonan-7-yl)quinazolin-7-yl)-7-fluorobenzo[d]thiazol-2-amine]	< 5	> 5	< 5
C[C@H]1N(c2nc(OC[C@@]34CCCN3C[C@H](F)C4)nc3c(F)c(-c4ccc(F)c5sc(N)c(C#N)c45)c(Cl)cc23)CC[C@]12CCN2C(=O)n1cnc(Cl)n1 [Compound 229, 2-amino-4-(6-chloro-4-((4S,5R)-1-(3-chloro-1H-1,2,4-triazole-1-carbonyl)-5-methyl-1,6-diazaspiro[3.4]octan-6-yl)-8-fluoro-2-(((2R,7aS)-2-fluorotetrahydro-1H-pyrrolizin-7a(5H)-yl)methoxy)quinazolin-7-yl)-7-fluorobenzo[b]thiophene-3-carbonitrile]	< 5	< 5	< 5
N#Cc1c(N)sc2c(F)ccc(-c3c(Cl)cc4c(N5CCC6(CCN6C=O)C5)nc(OC[C@@]56CCCN5C[C@H](F)C6)nc4c3F)c12 (stereo partly drawn) [Compound 227, 2-amino-4-(6-chloro-8-fluoro-2-(((2R,7aS)-2-fluorotetrahydro-1H-pyrrolizin-7a(5H)-yl)methoxy)-4-(1-formyl-1,6-diazaspiro[3.4]octan-6-yl)quinazolin-7-yl)-7-fluorobenzo[b]thiophene-3-carbonitrile]	< 5	< 5	< 5
C[C@H](Oc1nc(N2CCCC3(CCN3)C2)c2cc(Cl)c(-c3ccc(F)c4sc(N)c(C#N)c34)c(F)c2n1)[C@@H]1CCCN1C (stereo partly drawn) [Compound 210, 2-amino-4-(6-chloro-8-fluoro-2-((S)-1-((S)-1-methylpyrrolidin-2-yl)ethoxy)-4-(1,6-diazaspiro[3.5]nonan-6-yl)quinazolin-7-yl)-7-fluorobenzo[b]thiophene-3-carbonitrile]	< 5	< 5	< 5
N#Cc1c(N)sc2c(F)ccc(-c3c(Cl)cc4c(N5CCC6(CCCN6C(=O)n6cncn6)C5)nc(OC[C@@]56CCCN5C[C@H](F)C6)nc4c3F)c12 (stereo partly drawn) [Compound 261, 4-(4-(1-(1H-1,2,4-triazole-1-carbonyl)-1,7-diazaspiro[4.4]nonan-7-yl)-6-chloro-8-fluoro-2-(((2R,7aS)-2-fluorotetrahydro-1H-pyrrolizin-7a(5H)-yl)methoxy)quinazolin-7-yl)-2-amino-7-fluorobenzo[b]thiophene-3-carbonitrile]	< 5	< 5	< 5
C[C@H]1CN(C(=O)n2cnc(F)n2)[C@]12CCN(c1nc(OC[C@@]34CCCN3C[C@H](F)C4)nc3c(F)c(-c4ccc(F)c5sc(N)c(C#N)c45)c(Cl)cc13)C2 [Compound 255, 2-amino-4-(6-chloro-8-fluoro-4-((3S,4R)-1-(3-fluoro-1H-1,2,4-triazole-1-carbonyl)-3-methyl-1,6-diazaspiro[3.4]octan-6-yl)-2-(((2R,7aS)-2-fluorotetrahydro-1H-pyrrolizin-7a(5H)-yl)methoxy)quinazolin-7-yl)-7-fluorobenzo[b]thiophene-3-carbonitrile]	< 5	< 5	< 5
